The target of assay [1] is T1, KIF2C (Homo sapiens, UniProt Q99661).
T1 construct: KIF2C (216-598 a.a.); 6xHis (C); made in house; host or cells: E. coli BL21 (DE3), pET-28a
As to the kind of experiment: In vitro validation: KIF2C kinesin activity, malachite green-based phosphate colorimetric assay. The conditions noted are these: concentration that inhibits 50% of KIF2C activity. In kind it is biochemical. How it is done:
(§1) The in vitro validation was performed by measuring KIF2C kinesin activity using malachite green-based phosphate colorimetric assay (BioVision). […] The microtubules from porcine brain tubulin (Cytoskeleton) or purified from HEK293 cells in Free-style medium (293Fs) were dissolved in the BRB80 buffer (80 mM PIPES pH 6.8, 1 mM EGTA, 1 mM MgCl2, 1 mM GTP, 1 mM DTT, and 10% DMSO) at 37° C. for 2 hr. Phosphates released from kinesin-mediated ATP hydrolysis was measured by adding 30 μL of the phosphate colorimetric reagent (BioVision), incubated for 10 min, and then measured with absorbance at 650 nm. […] The cell validation was performed by measuring cytotoxicity in MDA-MB-231 cells. The cells were cultured in a 96-well plate at a confluence of 2000 cells/well with indicates compounds for specific days. When the time was up, the culture medium in the plate was aspirated and replaced with a prepared CellTiter-Glo reagent (Promega)/DMEM mixture (1:1 mix of CellTiter-Glo reagent and serum-supplemented DMEM). After incubation for 10 min, the luminescence was measured with an ELISA plate reader to determine the cell viability.
In vitro kinesin activity was measured using malachite green-based phosphate colorimetric assay (BioVision). […] The microtubules from porcine brain tubulin (Cytoskeleton) or purified from HEK293 cells in Free-style medium (293Fs) were dissolved in the BRB80 buffer (80 mM PIPES pH 6.8, 1 mM EGTA, 1 mM MgCl2, 1 mM GTP, 1 mM DTT, and 10% DMSO) at 37° C. for 2 hr. Phosphates released from kinesin-mediated ATP hydrolysis was measured by adding 30 μL of the phosphate colorimetric reagent (BioVision), incubated for 10 min, and then measured with absorbance at 650 nm.
Constructs of sN+M regions of KIF2C (216-598 a.a.), KIF2A (181-562 a.a.) and KIF2B (171-553 a.a.) with C-terminal 6×His tag were subcloned into pET-28a vector and expressed in BL21 (DE3) E. coli cells (Novartis) cultured in Luria-Bertani medium supplemented with 50 ug/mL kanamycin at 37° C. After induction with 0.8 mM IPTG for 18 hr at 20° C., the cells were pelleted by centrifugation at 6000 rpm for 30 min at 10° C. The collected pellets were resuspended in 30 mL of buffer A (20 mM Tris-HCl pH 7.5, 500 mM NaCl, 10 mM imidazole, 1% CHAPS, and 1 mM PMSF) and next subjected to a high-pressure homogenizer (EmulsiFlex-C3) for cell lysis. After removing the cell debris by centrifugation at 13000 rpm for 30 min at 10° C., the recombinant Kinesin-13 in the supernatant was purified using nickel affinity chromatography. Firstly, the supernatant was applied to the Ni-NTA column (GE Healthcare) pre-equilibrated with buffer A. Secondly, the column was washed with 10× column volumes of buffer A to remove the unwanted proteins. The washed column was then eluted with 10× column volumes of buffer containing increasing concentrations of imidazole (40, 100, 300, 1000 mM), and the majority of the recombinant Kinesin-13 protein was eventually obtained in a fraction of 300 mM imidazole. The fractions containing the recombinant Kinesin-13 were subsequently concentrated in the buffer B (20 mM Tris-HCl pH 7.5, 10 mM imidazole, 50 mM NaCl, 2 mM DTT) using an Amicon® Ultra filter (Millipore) and subjected to cation exchange column (Capto S, GE Healthcare) for further purification. The recombinant Kinesin-13 was then eluted in elution buffer (20 mM Tris-HCl pH 7.5 and 2 mM DTT) containing 400 mM of NaCl and stored at −80° C. for long-term storage.

The subject of assay [2] is MDA-MB-231 cells. As to the kind of experiment: Cell validation: cytotoxicity in MDA-MB-231 cells (CellTiter-Glo). The conditions noted are these: cytotoxicity in MDA-MB-231 cells; for IC50: Homo sapiens. It counts as cell-based. The procedure:
as §1
The cancer cells were cultured in a 96-well plate at a confluence of 1000-2000 cells/well with indicated drugs for specific days. When the time was up, the culture medium in the plate was aspirated and replaced with a prepared CellTiter-Glo reagent/DMEM mixture (1:1 mix of CellTiter-Glo reagent and serum-supplemented DMEM). After incubation for 10 min, the luminescence (proportional to the number of living cells) was measured with an ELISA plate reader to determine the cell viability.
In general terms: Cellular ATP, detected with luciferase, serves as a proxy for viable cell number.

Each structure is given as a SMILES string.

T1 sequence (Q99661 216-598): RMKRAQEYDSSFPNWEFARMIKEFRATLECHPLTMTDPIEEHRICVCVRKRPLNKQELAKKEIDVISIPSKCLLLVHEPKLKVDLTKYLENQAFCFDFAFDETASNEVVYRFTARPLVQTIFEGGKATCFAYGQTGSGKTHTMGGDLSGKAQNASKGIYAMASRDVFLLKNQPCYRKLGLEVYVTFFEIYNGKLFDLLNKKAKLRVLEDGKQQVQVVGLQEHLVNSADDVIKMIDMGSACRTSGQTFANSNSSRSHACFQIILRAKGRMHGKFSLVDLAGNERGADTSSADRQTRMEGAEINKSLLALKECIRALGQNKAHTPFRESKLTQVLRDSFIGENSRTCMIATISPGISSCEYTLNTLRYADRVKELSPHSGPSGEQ

Consider `CC1=C(C(=O)OC(C)(C)C)C(c2ccc(N(C)C)cc2)n2c(s/c(=C\c3ccc(OCC(=O)N4CCC(N5CCN(C)CC5)CC4)cc3)c2=O)=N1` (stereo not shown) [Compound 152], for which the EC50 in assay [1] is 50 to 100 µM. The IC50 in assay [2] was in the range of 20 to 50 µM.
On the same counts, the results for `CC1=C(C(=O)OC(C)C)C(c2cccc(Cl)c2)n2c(s/c(=C\c3ccc(OCC(=O)O)cc3)c2=O)=N1` (stereo not shown) [15S0 (66), (Z)-2-(4-((5-(3-chlorophenyl)-6-(isopropoxycarbonyl)-7-methyl-3-oxo-5H-thiazolo[3,2-a]pyrimidin-2(3H)-ylidene)methyl)phenoxy)acetic acid] are over 100 µM and over 50 µM.
As for `CC1=C(C(=O)OC(C)C)C(c2ccc(Cl)cc2)n2c(s/c(=C\c3ccc(F)cc3)c2=O)=N1` (stereo not shown) [2S0 (22), isopropyl (Z)-5-(4-chlorophenyl)-2-(4-fluorobenzylidene)-7-methyl-3-oxo-2,3-dihydro-5H-thiazolo[3,2-a]pyrimidine-6-carboxylate], the EC50 in assay [1] was over 100 µM. In assay [2], the IC50 was over 50 µM.
Regarding `COC(=O)C1=C(C)N=c2s/c(=C\c3ccc(OCC(=O)N4CCN(C)CC4)cc3)c(=O)n2C1c1ccc(Cl)cc1` (stereo not shown) [26S0 (93)], the EC50 in assay [1] is 50 to 100 µM. In assay [2], the “Cell validation (IC50)” value is reported as “+ +”.
`CC1=C(C(=O)O)C(c2ccc(Cl)cc2)n2c(s/c(=C\c3ccc(OCC(=O)N4CCN(C)CC4)cc3)c2=O)=N1` (stereo not shown) [Compound 137] came in with an EC50 in assay [1] of under 50 µM. The IC50 in assay [2] is over 50 µM.
Turning to `CC1=C(C(=O)OC(C)(C)C)C(c2ccc(Cl)cc2)n2c(s/c(=C\c3ccc(OCC(=O)N4CCN(C)CC4)cc3)c2=O)=N1` (stereo not shown) [25S0 (95)], the EC50 in assay [1] was over 100 µM. For the same molecule, the “Cell validation (IC50)” value in assay [2] is “+ +”.
In assay [1], `CCOC(=O)C1=C(C)N=c2s/c(=C\c3ccc(OCC(=O)O)cc3)c(=O)n2[C@H]1c1ccc(Cl)cc1` [55S0 (131)] registered an EC50 of over 100 µM. This molecule showed an IC50 in assay [2] of over 50 µM.
As to `CC1=C(C(=O)OC(C)C)C(c2ccc(F)cc2)n2c(s/c(=C\c3ccc(OCC(=O)N4CCN(C)CC4)cc3)c2=O)=N1` (stereo not shown) [32S0 (36), isopropyl (Z)-5-(4-fluorophenyl)-7-methyl-2-(4-(2-(4-methylpiperazin-1-yl)-2-oxoethoxy)benzylidene)-3-oxo-2,3-dihydro-5H-thiazolo[3,2-a]pyrimidine-6-carboxylate], the EC50 in assay [1] was over 100 µM. In addition, in assay [2], the “Cell validation (IC50)” value was “+ +”.
In the same order, the values of `COc1ccc(C2C(C(=O)OC(C)C)=C(C)N=c3s/c(=C\c4ccc(OCC(=O)N5CCC(N6CCN(C)CC6)CC5)cc4)c(=O)n32)cc1` (stereo not shown) [43S0 (62), isopropan-2-yl (2Z)-5-(4-chlorophenyl)-7-methyl-2-(4-(2-(4-(4-methylpiperazin-1-yl)piperidin-1-yl)-2-oxoethoxy)benzylidene)-3-oxo-2,3-dihydro-5H-[1,3]thiazolo[3,2-a]pyrimidine-6-carboxylate] are 50 to 100 µM and “+ + + +”.
In turn, `CCN1CCN(C(=O)COc2ccc(/C=c3\sc4n(c3=O)C(c3ccc(N(C)C)cc3)C(C(=O)O)=C(C)N=4)cc2)CC1` (stereo not shown) [Compound 145] displayed a 50% effective concentration (EC50) in assay [1] of under 50 µM. Also, the IC50 in assay [2] is over 50 µM.
In assay [1], `C#CCOc1ccc(/C=c2\sc3n(c2=O)C(c2ccc(Cl)cc2)C(C(=O)OC(C)C)=C(C)N=3)cc1` (stereo not shown) [36S0 (116), isopropyl (Z)-5-(4-chlorophenyl)-7-methyl-3-oxo-2-(4-(prop-2-yn-1-yloxy)benzylidene)-2,3-dihydro-5H-thiazolo[3,2-a]pyrimidine-6-carboxylate] registered an EC50 of over 100 µM. This molecule registered an IC50 in assay [2] of over 50 µM.
On to `CC1=C(C(=O)OC(C)C)C(c2ccc(Cl)cc2)n2c(s/c(=C\c3ccc(OCC(=O)NC4CCN(C)CC4)cc3)c2=O)=N1` (stereo not shown) [Compound 136], for which, in assay [1], the EC50 was over 100 µM. For the same molecule, the IC50 in assay [2] is over 50 µM.
For the molecule `CC1=C(C(=O)OC(C)C)C(c2ccc(C)cc2)n2c(s/c(=C\c3ccc(OCC(=O)O)cc3)c2=O)=N1` (stereo not shown) [17S0 (50), (Z)-2-(4-((6-(isopropoxycarbonyl)-7-methyl-3-oxo-5-(p-tolyl)-5H-thiazolo[3,2-a]pyrimidin-2(3H)-ylidene)methyl)phenoxy)acetic acid], the EC50 in assay [1] was over 100 µM. Moreover, the IC50 in assay [2] was over 50 µM.
For the molecule `CC1=C(C(=O)CC(C)C)C(c2ccc(Cl)cc2)n2c(s/c(=C\c3ccc(OCC(=O)N4CCN(C)CC4)cc3)c2=O)=N1` (stereo not shown) [27S0 (98), (Z)-5-(4-chlorophenyl)-7-methyl-6-(3-methylbutanoyl)-2-(4-(2-(4-methylpiperazin-1-yl)-2-oxoethoxy)benzylidene)-5H-thiazolo[3,2-a]pyrimidin-3(2H)-one], in assay [1], the EC50 fell in the range of 50 to 100 µM. Also, the “Cell validation (IC50)” value in assay [2] is listed as “+ +”.
Molecule `CC1=C(C(=O)OC(C)C)C(c2ccc(N(C)C)cc2)n2c(s/c(=C\c3ccc(OCC(=O)O)cc3)c2=O)=N1` (stereo not shown) [51S0 (55), (Z)-2-(4-((5-(4-(dimethylamino)phenyl)-6-(isopropoxycarbonyl)-7-methyl-3-oxo-5H-thiazolo[3,2-a]pyrimidin-2(3H)-ylidene)methyl)phenoxy)acetic acid] registered an EC50 in assay [1] of 50 to 100 µM. In addition, in assay [2], the IC50 is over 50 µM.
In assay [1], `CC1=C(C(=O)OC(C)C)C(c2ccc(Cl)cc2)n2c(s/c(=C\c3ccc(OCC(=O)N4CCC(O)CC4)cc3)c2=O)=N1` (stereo not shown) [31S0 (20), isopropyl (Z)-5-(4-chlorophenyl)-2-(4-(2-(4-hydroxypiperidin-1-yl)-2-oxoethoxy)benzylidene)-7-methyl-3-oxo-2,3-dihydro-5H-thiazolo[3,2-a]pyrimidine-6-carboxylate] registered an EC50 of over 100 µM. In assay [2], the IC50 is over 50 µM.
Molecule `CC1=C(C(=O)OC(C)C)C(c2ccc(N(C)C)cc2)n2c(s/c(=C\c3ccc(OCC(=O)N4CCN(C)CC4)cc3)c2=O)=N1` (stereo not shown) [19S0 (56), isopropyl (Z)-5-(4-(dimethylamino)phenyl)-7-methyl-2-(4-(2-(4-methylpiperazin-1-yl)-2-oxoethoxy)benzylidene)-3-oxo-2,3-dihydro-5H-thiazolo[3,2-a]pyrimidine-6-carboxylate] had an EC50 in assay [1] of under 50 µM. For the same molecule, in assay [2], the “Cell validation (IC50)” value is “+ +”.
Take `COC(=O)COc1ccc(/C=c2\sc3n(c2=O)C(c2ccc(Cl)cc2)C(C(=O)OC(C)C)=C(C)N=3)cc1` (stereo not shown) [46S0 (25), isopropyl (Z)-5-(4-chlorophenyl)-2-(4-(2-methoxy-2-oxoethoxy)benzylidene)-7-methyl-3-oxo-2,3-dihydro-5H-thiazolo[3,2-a]pyrimidine-6-carboxylate]: the concentration for a half-maximal effect (EC50) in assay [1] is over 100 µM. In assay [2], this molecule returned an IC50 of over 50 µM.
In assay [1], `COc1ccc(/C=c2\sc3n(c2=O)C(c2ccc(Cl)cc2)C(C(=O)OC(C)C)=C(C)N=3)cc1` (stereo not shown) [3S0 (23), isopropyl (Z)-5-(4-chlorophenyl)-2-(4-methoxybenzylidene)-7-methyl-3-oxo-2,3-dihydro-5H-thiazolo[3,2-a]pyrimidine-6-carboxylate] showed a concentration giving a half-maximal response (EC50) of over 100 µM. For the same molecule, the IC50 in assay [2] is over 50 µM.
In turn, `CC1=C(C(=O)OC(C)C)C(c2ccc(Cl)cc2)n2c(s/c(=C\c3ccc(OC(C)(C)C(=O)O)cc3)c2=O)=N1` (stereo not shown) [47S0 (107), (Z)-2-(4-((5-(4-chlorophenyl)-6-(isopropoxycarbonyl)-7-methyl-3-oxo-5H-thiazolo[3,2-a]pyrimidin-2(3H)-ylidene)methyl)phenoxy)-2-methylpropanoic acid] yielded an EC50 in assay [1] of over 100 µM. In assay [2], this molecule came in with a 50% inhibitory concentration (IC50) of over 50 µM.

As usually defined, the EC50 is the concentration that produces a half-maximal response. Read a low EC50 as higher potency in that assay. As a reminder, the IC50 is the midpoint of a concentration-inhibition curve. A high value points to lower potency.
